Like-named read-outs stand apart in the source and are kept apart here.
Tested on: HCT-116 cells
Assay: Cell growth test (CellTiter-Blue), HCT-116
Format: cell-based
Conditions: for cytotoxic effect relative to compound (1): 72 hours; for IC50: Homo sapiens, HCT-116, 48 h, 48 hours, read-out: IC50, cytotoxic effect
Experimental: The biological activity of compound (1), as well as that of its structural analogues, was studied in vitro on 7 different cancer cell lines: • HCT-116 (colorectal cancer) • U87 (glioblastoma) • K562 (myeloid leukemia) and K562 R • MDA-MB 231 (mammary adenocarcinoma) • MCF-7 (mammary adenocarcinoma) • A549 (pulmonary alveolar adenocarcinoma)
The cells selected for this study were incubated at 37° C. in the presence of compound (1) added in the culture medium at various concentrations and at various times. The set of experiments carried out made it possible to determine the degree of cytotoxicity of the compound tested (IC50), its capacity to induce cell death by apoptosis, in close dependence on extracellular superoxide anion for its activation. […]

| SMILES | cytotoxic effect relative to compound (1) (HCT-116, normoxia) | IC50 (HCT-116, hypoxia (2% O2)) | IC50 (HCT-116, normoxia) |
| --- | --- | --- | --- |
| OCCCn1cc(-c2ccccc2)c(-c2ccc3c(c2)OCCO3)c1 [(2), 3-(3-(2,3-dihydrobenzo[b][1,4]dioxin-6-yl)-4-phenyl-1H-pyrrole-1-yl)propan-1-ol] | loss of cytotoxicity |  |  |
| OCCCn1cc(-c2ccccc2)c(-c2ccccc2)c1 [(3), 3-(3,4-Diphenyl-1H-pyrrol)propan-1-ol] | loss of cytotoxicity |  |  |
| CCOCCCn1cc(-c2ccccc2)c(-c2ccc(O)c(O)c2)c1 [(4), 4-(1-(3-Ethoxypropyl)-4-phenyl-1H-pyrrole-3-yl)benzene-1,2-diol] | does not substantially change the IC50 value |  |  |
| O=C1C=C(c2cn(CCCO)cc2-c2ccccc2)C=C(C2=C(O)C(c3cn(CCCO)cc3-c3ccccc3)=CC(O)C2O)C1=O (centres unmarked) [dimer MH+ 631] |  | 10 µM | 7.5 µM |

Source: patent US10233151B2, “Use of a novel 3-aryl-4-catechol-pyrrole-N-propanol compound and the derivatives thereof to treat cancer and diseases related to excessive angiogenesis” (Centre National de la Recherche Scientifique (CNRS), priority 2014, dated 2019)
